# Where two headings read alike, the source gives them in different places.
# What was measured:
# [1] = biological target: T1, PRMT5-MEP50 enzyme complex (Homo sapiens, UniProt O14744); assay: PRMT5-MEP50 Enzyme Methylation Assay (Version B); assay type: biochemical
# T1 construct: Full-length (FL)-PRMT5-MEP50 enzyme complex (recombinant proteins from baculovirus-transfected Sf21 cells: FL-PRMT5; MW=73837 kDa and FL-MEP50; MW=38614); made in house; host or cells: baculovirus-transfected Sf21 cells
# T1 sequence (O14744 whole entry): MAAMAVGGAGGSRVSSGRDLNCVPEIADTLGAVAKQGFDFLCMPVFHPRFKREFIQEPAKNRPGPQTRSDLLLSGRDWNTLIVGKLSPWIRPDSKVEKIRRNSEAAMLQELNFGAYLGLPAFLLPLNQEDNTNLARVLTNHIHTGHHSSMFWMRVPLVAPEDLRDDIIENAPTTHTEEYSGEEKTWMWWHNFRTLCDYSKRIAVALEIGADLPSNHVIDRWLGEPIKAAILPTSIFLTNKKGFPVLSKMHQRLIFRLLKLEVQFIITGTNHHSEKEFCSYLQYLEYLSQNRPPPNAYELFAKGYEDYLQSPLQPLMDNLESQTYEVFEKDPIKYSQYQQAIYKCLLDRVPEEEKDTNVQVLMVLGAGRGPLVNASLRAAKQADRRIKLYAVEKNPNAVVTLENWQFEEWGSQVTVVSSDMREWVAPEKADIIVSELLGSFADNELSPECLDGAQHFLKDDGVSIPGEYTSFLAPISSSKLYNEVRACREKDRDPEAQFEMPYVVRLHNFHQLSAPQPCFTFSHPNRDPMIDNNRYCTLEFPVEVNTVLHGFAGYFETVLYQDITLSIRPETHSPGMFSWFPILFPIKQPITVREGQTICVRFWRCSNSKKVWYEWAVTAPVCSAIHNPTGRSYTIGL
# T1 sequence (Q9BQA1 whole entry partner): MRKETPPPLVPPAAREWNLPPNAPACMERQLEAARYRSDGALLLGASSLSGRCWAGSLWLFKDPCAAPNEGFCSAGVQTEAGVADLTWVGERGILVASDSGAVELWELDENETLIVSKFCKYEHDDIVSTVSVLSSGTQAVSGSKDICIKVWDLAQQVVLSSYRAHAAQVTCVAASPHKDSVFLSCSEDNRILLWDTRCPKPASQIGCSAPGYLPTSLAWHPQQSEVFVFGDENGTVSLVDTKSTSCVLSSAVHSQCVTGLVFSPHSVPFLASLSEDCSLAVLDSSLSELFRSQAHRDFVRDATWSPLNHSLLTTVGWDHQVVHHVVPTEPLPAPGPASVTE
# Description: PRMT5-MEP50 Enzyme Methylation Assay (Version B)
# PRMT5-MEP50 biochemical assay is a direct measurement of the methylation activity of the enzyme complex on a short peptide substrate derived from the N-terminus of H4 histone. Methylation experiment was performed with recombinant PRMT5-MEP50 protein complex. The assessment of inhibitory effect (EC50) of small molecules was measured by the effectiveness of the compounds to inhibit this reaction.
# In this assay, the potency (EC50) of each compound was determined from a twenty-point (1:2 serial dilution; top compound concentration of 100000 nM) titration curve using the following outlined procedure. To each well of a white ProxiPlus 384 well-plate, 100 nL of compound (1% DMSO in final assay volume of 10 μL) was dispensed, followed by the addition of 8 μL of 1× assay buffer (50 mM Bicine pH 8.0, 1 mM DTT, 0.004% Tween20, 0.01% BSA) containing 0.625 nM of Full-length (FL)-PRMT5-MEP50 enzyme complex (recombinant proteins from baculovirus-transfected Sf21 cells: FL-PRMT5; MW=[…] and FL-MEP50; MW=38614). Plates were sealed and placed in a 37° C. humidified chamber for 30 minutes pre-incubation with compounds. Subsequently, each reaction was initiated by the addition of 2 μL 1× assay buffer containing 375 nM biotinylated H4R3 (MeI) peptide, and 75 μM S-(5′-Adenosyl)-L-Methionine Chloride (SAM). The final reaction in each well of 10 μL consists of 0.5 nM PRMT5-MEP50, 75 nM biotinylated-peptide, and 15 μM SAM. Methylation reactions were allowed to proceed for 150 minutes in a sealed plate at 37° C. Reactions were immediately quenched by the addition of 1 μL of 10% formic acid. Plates were then frozen and shipped to SAMDI™ Tech Inc. to determine the percent conversion from […]. Dose-response curves were generated by plotting percent effect (% product conversion; Y-axis) vs. Log 10 compound concentrations (X-axis). EC50 values were determined by non-linear regression according to models for either sigmoidal (4 parameters) or biphasic (7 parameters) dose-response curves.
# PRMT5 = biological target: T2, PRMT5 (Homo sapiens, UniProt O14744); assay: PRMT5 Cell Target Engagement (TE) Assay; assay type: cell-based; conditions: MCF-7 cells, treated for 3 days, symmetric dimethylation of arginine (SDMA) by high content imaging
# T2 construct: seeded with 4000 MCF-7 cells in 30 μl media; endogenous in cells; host or cells: MCF-7 cells
# T2 sequence (O14744 whole entry): as the sequence (O14744 whole entry) above
# T2 sequence (Q9BQA1 whole entry partner): as the sequence (Q9BQA1 whole entry partner) above
# Description: PRMT5 Cell Target Engagement (TE) Assay
# The PRMT5 TE assay is a biomarker assay for identifying compounds that inhibit symmetric dimethylation of arginine (SDMA) of PRMT5 substrates. The following substrates have been reported for PRMT5: histone H2A and H4 R3, Histone H3 R2, Histone H3 R8, spliceosome Sm proteins, ribosomal protein RPS10, p53, FEN1, nucleoplasmin, nucleolin, EGFR and EBNA. The assay focuses on detecting symmetrically dimethylated nuclear proteins using high content imaging technology. Detection of the expression of symmetrically dimethylated nuclear proteins is through a mixture of primary rabbit monoclonal antibodies to SDMA (CST 13222), which in turn recognized by an Alexafluor 488 dye-conjugated anti-rabbit IgG secondary antibody. The IN Cell Analyzer 2200 or Opera-Phenix measures nuclear Alexafluor 488 fluorescent dye intensity that is directly related to the level of expression of symmetrically dimethylated nuclear proteins at the single cell level. Nuclear AF488 dye intensities are compared to the mean value for DMSO treated cells (MIN) to report percent of inhibition for each compound-treated well.
# In this assay, the cell potency (EC50) of each compound was determined from a ten point (1:3 serial dilution; top compound concentration of 10000 nM) titration curve using the following outlined procedure. Each well of a BD falcon collagen coated black/clear bottom 384-well plate was seeded with 4000 MCF-7 cells in 30 μl media and allowed to attach for 5 h. Media is ATCC-formulated Eagle's Minimum Essential Medium, Catalog No. 30-2003. To make the complete growth medium, the following components were added to the base medium: 0.01 mg/mL human recombinant insulin; fetal bovine serum to a final concentration of 10%. Additional 30 μl of media containing 2× compounds were added to each well. Cells were treated for 3 days in 37° C. CO2 incubator. On day 3, cells were fixed with Cytofix, permeabilized with 0.4% Triton-X-100/Cytofix, and washed with D-PBS without Ca/Mg. Cells were blocked with Licor Odessey blocking reagent for 1 h at room temperature, followed by incubation with anti-SDMA (1:1000) antibody at 4° C. overnight. 1° antibody was removed, followed by three washings with DPBS without Ca/Mg and 0.05% Tween20. Hoechst (5 μg/mL), Cell Mask deep stain (1:2000) and Alexa488-conjugated goat anti-rabbit IgG (2 μg/mL) was added for 1 h at room temperature. A final washing step (three washes) was performed before sealing plate for imaging on In Cell Analyzer 2200 or Opera-Phenix. Images from analyzer were uploaded to Columbus (at WP or BOS) for image analysis. IC50 values were determined by 4 parameters robust fit of percent fluorescence units vs. (Log10) compound concentrations.
# [2] = only one EC50 shown: 4 parameters single site sigmoidal model, 30 min pre-incubation, read-out: Enzyme Methylation Assay Version B (EC50)
# [3] = first of two EC50s: 7 parameters biphasic model, read-out: Enzyme Methylation Assay Version B (EC50_1)
# [4] = second of two EC50s: 7 parameters biphasic model, read-out: Enzyme Methylation Assay Version B (EC50_2)
SMILES,"EC50 [1, 2] [nM]",EC50 (PRMT5) [nM],"EC50 [1, 3] [nM]","EC50 [1, 4] [nM]"
"O=C(c1ccc(OCC(F)(F)F)nc1)N1CCC(N2Cc3ccccc3C(F)(F)C2)C(O)C1 (single isomer, unassigned) [Example 29, (-4-(4,4-difluoro-3,4-dihydroisoquinolin-2(1H)-yl)-3-hydroxypiperidin-1-yl)(6-(2,2,2-trifluoroethoxy)pyridin-3-yl)methanone]",1340,> 10000,,
"CC(=O)N1CCC(Nc2cc(C(=O)N3C[C@H]4C[C@@H]3C(O)C4N3CCc4ccccc4C3)c(F)cn2)CC1 (single isomer, unassigned) [Example 30]",4830,> 10000,,
"Cc1ccc2c(c1)CN(C1CCN(C(=O)c3ccc(OCC(F)(F)F)nc3)CC1O)CC2 (single isomer, unassigned) [Example 47, ((3R,4R or 3S,4S)-3-hydroxy-4-(7-methyl-3,4-dihydroisoquinolin-2(1H)-yl)piperidin-1-yl)(6-(2,2,2-trifluoroethoxy)pyridin-3-yl)methanone]",1180,> 10000,,
"Cc1ccc2c(c1)CN(C1CCN(C(=O)c3ccc(OCC(F)(F)F)nc3)CC1O)CC2 (single isomer, unassigned) [Example 48, ((3S,4S or 3R,4R)-3-hydroxy-4-(7-methyl-3,4-dihydroisoquinolin-2(1H)-yl)piperidin-1-yl)(6-(2,2,2-trifluoroethoxy)pyridin-3-yl)methanone]",17800,> 10000,,
"CC(C)(C#N)c1ccc(C(=O)N2CC[C@@H](N3CCc4ccccc4C3)[C@H](O)C2)cn1 (single isomer, unassigned) [Example 90]",1540,> 10000,,
"Cc1ccc2c(c1)CCN([C@H]1CCN(C(=O)c3ccc(OCC(F)(F)F)nc3)C[C@@H]1O)C2 [Example 4, ((3S,4S)-3-hydroxy-4-(6-methyl-3,4-dihydroisoquinolin-2(1H)-yl)piperidin-1-yl)(6-(2,2,2-trifluoroethoxy)pyridin-3-yl)methanone]",,> 10000,~10,29200
"Cc1ccc2c(c1)CCN([C@@H]1CCN(C(=O)c3ccc(OCC(F)(F)F)nc3)C[C@H]1O)C2 [Example 5, ((3R,4R)-3-hydroxy-4-(6-methyl-3,4-dihydroisoquinolin-2(1H)-yl)piperidin-1-yl)(6-(2,2,2-trifluoroethoxy)pyridin-3-yl)methanone]",1410,> 10000,,
"O=C(c1ccn(CC(F)(F)F)c(=O)c1)N1CC[C@@H](N2CCc3ccccc3C2)[C@H](O)C1 [Example 32, 4-((3R,4R)-4-(3,4-dihydroisoquinolin-2(1H)-yl)-3-hydroxypiperidine-1-carbonyl)-1-(2,2,2-trifluoroethyl)pyridin-2(1H)-one]",2160,> 10000,,
CCOc1cc(C(=O)N2C3CCC2COC3)ccc1C(=O)N1CC[C@H](N2CCc3ccccc3C2)[C@@H](O)C1 [Example 33],,27,23,4650

# The remaining lines, values ahead:
"EC50 [1, 2] [nM]",EC50 (PRMT5) [nM],"EC50 [1, 3] [nM]","EC50 [1, 4] [nM]",SMILES
,100,~8,6170,"O=C(c1cn2c(n1)CCC(C(F)(F)F)C2)N1CC[C@H](N2CCc3ccccc3C2)[C@@H](O)C1 (single isomer, unassigned) [Example 82]"
,365,12,9550,"O=C(c1cn2c(n1)CCC(C(F)(F)F)C2)N1CC[C@H](N2CCc3ccccc3C2)[C@@H](O)C1 (single isomer, unassigned) [Example 83]"
,4.4,5.3,3760,"CC(=O)N1CCC(Nc2cc(C(=O)N3CC[C@H](N4CCc5ccccc5C4)[C@@H](O)C3)c(F)cn2)C(F)(F)C1 (single isomer, unassigned) [Example 86]"
,59,8.6,7240,"CC(=O)N1CCC(Nc2cc(C(=O)N3CC[C@H](N4CCc5ccccc5C4)[C@@H](O)C3)c(F)cn2)C(F)(F)C1 (single isomer, unassigned) [Example 87]"
,3950,~110,> 100000,"CC(C)(C#N)c1ccc(C(=O)N2CC[C@H](N3CCc4ccccc4C3)[C@@H](O)C2)cn1 (single isomer, unassigned) [Example 89]"
,7530,127,70800,"CC1OC(=O)Nc2cc(C(=O)N3CC[C@H](N4CCc5ccccc5C4)[C@@H](O)C3)ccc21 (single isomer, unassigned) [Example 91]"
,32,4.4,2460,"CC1OC(=O)Nc2cc(C(=O)N3CC[C@@H](N4CCc5ccccc5C4)[C@H](O)C3)ccc21 (single isomer, unassigned) [Example 92]"
,182,~18,11800,"CC1OC(=O)Nc2cc(C(=O)N3CC[C@@H](N4CCc5ccccc5C4)[C@H](O)C3)ccc21 (single isomer, unassigned) [Example 93]"
,4560,~291,> 100000,"CC1OC(=O)Nc2cc(C(=O)N3CC[C@H](N4CCc5ccccc5C4)[C@@H](O)C3)ccc21 (single isomer, unassigned) [Example 94]"
,131,8.2,8710,"CC1OC(=O)Nc2cc(C(=O)N3CC[C@H](N4CCc5ccccc5C4)[C@@H](O)C3)c(F)cc21 (single isomer, unassigned) [Example 99]"
,15,4.8,1720,"CC1OC(=O)Nc2cc(C(=O)N3CC[C@H](N4CCc5ccccc5C4)[C@@H](O)C3)c(F)cc21 (single isomer, unassigned) [Example 100]"
,3090,~75,37600,"CC(=O)N1CCC(Nc2cc(C(=O)N3CC[C@@H](N4CCc5ccccc5C4)[C@H](O)C3)c(F)cn2)CC1 [Example 3, 1-(4-((4-((3R,4R)-4-(3,4-dihydroisoquinolin-2(1H)-yl)-3-hydroxypiperidine-l-carbonyl)-5-fluoropyridin-2-yl)amino)piperidin-l-yl)ethan-l-one]"
,405,~30,34300,"O=C(c1ccn(CC(F)(F)F)c(=O)c1)N1CC[C@H](N2CCc3ccccc3C2)[C@@H](O)C1 [Example 31, 4-((3S,4S)-4-(3,4-dihydroisoquinolin-2(1H)-yl)-3-hydroxypiperidine-1-carbonyl)-1-(2,2,2-trifluoroethyl)pyridin-2(1H)-one]"

# Source: US12595248B2, “PRMT5 inhibitors” (Merck Sharp & Dohme LLC, priority 2019, dated 2026)
